In ChEMBL document CHEMBL2440076, “New triarylpyrazoles as broad-spectrum anticancer agents: design, synthesis, and biological evaluation” (Eur J Med Chem, 2013):

How the values were obtained:
Type in all cases: functional
RXF 393 = experiment: Growth inhibition of human RXF393 cells assessed as cell growth at 3X10'-5 M after 48 hrs by sulforhodamine B assay; conditions: RXF 393, 48 h, read-out: Activity
MDA-MB-231 = experiment: Growth inhibition of human MDA-MB-231 cells assessed as cell growth at 3X10'-8 M after 48 hrs by sulforhodamine B assay; conditions: MDA-MB-231, 48 h, read-out: Activity
NCI-H226 = experiment: Growth inhibition of human NCI-H226 cells assessed as cell growth at 3X10'-5 M after 48 hrs by sulforhodamine B assay; conditions: NCI-H226, 48 h, read-out: Activity
HT-29 = experiment: Growth inhibition of human HT-29 cells assessed as cell growth at 3X10'-8 M after 48 hrs by sulforhodamine B assay; conditions: HT-29, 48 h, read-out: Activity
SR [1] = experiment: Growth inhibition of human SR cells assessed as cell growth at 3X10'-7 M after 48 hrs by sulforhodamine B assay; conditions: read-out: Activity
786-0 = experiment: Growth inhibition of human 786-0 cells assessed as cell growth at 3X10'-8 M after 48 hrs by sulforhodamine B assay; conditions: 786-0, 48 h, read-out: Activity
UACC-62 = experiment: Growth inhibition of human UACC62 cells assessed as cell growth at 3X10'-7 M after 48 hrs by sulforhodamine B assay; conditions: UACC-62, 48 h, read-out: Activity
K562 [2] = experiment: Growth inhibition of human K562 cells assessed as cell growth at 3X10'-6 M after 48 hrs by sulforhodamine B assay; conditions: K562, 48 h, read-out: Activity
PC-3 = experiment: Growth inhibition of human PC3 cells assessed as cell growth at 3X10'-7 M after 48 hrs by sulforhodamine B assay; conditions: PC-3, 48 h, read-out: Activity
BT-549 = experiment: Growth inhibition of human BT549 cells assessed as cell growth at 3X10'-8 M after 48 hrs by sulforhodamine B assay; conditions: BT-549, 48 h, read-out: Activity
SK-MEL-5 [3] = experiment: Growth inhibition of human SK-MEL-5 cells assessed as cell growth at 3X10'-9 M after 48 hrs by sulforhodamine B assay; conditions: SK-MEL-5, 48 h, read-out: Activity
UACC-257 = experiment: Growth inhibition of human UACC257 cells assessed as cell growth at 3X10'-9 M after 48 hrs by sulforhodamine B assay; conditions: UACC-257, 48 h, read-out: Activity
SK-MEL-5 [4] = experiment: Growth inhibition of human SK-MEL-5 cells assessed as cell growth at 3X10'-6 M after 48 hrs by sulforhodamine B assay; conditions: SK-MEL-5, 48 h, read-out: Activity
A549 = experiment: Growth inhibition of human A549/ATCC cells assessed as cell growth at 3X10'-6 M after 48 hrs by sulforhodamine B assay; conditions: A549, 48 h, read-out: Activity
U-251 = experiment: Growth inhibition of human U251 cells assessed as cell growth at 3X10'-9 M after 48 hrs by sulforhodamine B assay; conditions: U-251, 48 h, read-out: Activity
HL-60(TB) = experiment: Growth inhibition of human HL-60(TB) cells assessed as cell growth at 3X10'-7 M after 48 hrs by sulforhodamine B assay; conditions: HL-60, 48 h, read-out: Activity
SK-MEL-5 [5] = experiment: Growth inhibition of human SK-MEL-5 cells assessed as cell growth at 3X10'-8 M after 48 hrs by sulforhodamine B assay; conditions: SK-MEL-5, 48 h, read-out: Activity
[6] = Growth inhibition of human Hs 578T cells assessed as cell growth at 3X10'-9 M after 48 hrs by sulforhodamine B assay; conditions: read-out: Activity
HOP-92 [7] = experiment: Growth inhibition of human HOP92 cells assessed as cell growth at 3X10'-6 M after 48 hrs by sulforhodamine B assay; conditions: HOP-92, 48 h, read-out: Activity
SR [8] = experiment: Growth inhibition of human SR cells assessed as cell growth at 3X10'-6 M after 48 hrs by sulforhodamine B assay; conditions: read-out: Activity
MDA-MB-468 = experiment: Growth inhibition of human MDA-MB-468 cells assessed as cell growth at 3X10'-8 M after 48 hrs by sulforhodamine B assay; conditions: MDA-MB-468, 48 h, read-out: Activity
MDA-MB-435 = experiment: Growth inhibition of human MDA-MB-435 cells assessed as cell growth at 3X10'-8 M after 48 hrs by sulforhodamine B assay; conditions: MDA-MB-435, 48 h, read-out: Activity
ACHN = experiment: Growth inhibition of human ACHN cells assessed as cell growth at 3X10'-9 M after 48 hrs by sulforhodamine B assay; conditions: read-out: Activity
K562 [9] = experiment: Growth inhibition of human K562 cells assessed as cell growth at 3X10'-7 M after 48 hrs by sulforhodamine B assay; conditions: K562, 48 h, read-out: Activity
IGROV-1 = experiment: Growth inhibition of human IGROV1 cells assessed as cell growth at 3X10'-7 M after 48 hrs by sulforhodamine B assay; conditions: IGROV-1, 48 h, read-out: Activity
CCRF-CEM = experiment: Growth inhibition of human CCRF-CEM cells assessed as cell growth at 3X10'-6 M after 48 hrs by sulforhodamine B assay; conditions: read-out: Activity
SK-MEL-28 = experiment: Growth inhibition of human SK-MEL-28 cells assessed as cell growth at 3X10'-7 M after 48 hrs by sulforhodamine B assay; conditions: SK-MEL-28, 48 h, read-out: Activity
SK-OV-3 = experiment: Growth inhibition of human SKOV3 cells assessed as cell growth at 3X10'-8 M after 48 hrs by sulforhodamine B assay; conditions: SK-OV-3, 48 h, read-out: Activity
SK-MEL-2 = experiment: Growth inhibition of human SK-MEL-2 cells assessed as cell growth at 3X10'-7 M after 48 hrs by sulforhodamine B assay; conditions: SK-MEL-2, 48 h, read-out: Activity
K562 [10] = experiment: Growth inhibition of human K562 cells assessed as cell growth at 3X10'-9 M after 48 hrs by sulforhodamine B assay; conditions: K562, 48 h, read-out: Activity
OVCAR-4 = experiment: Growth inhibition of human OVCAR4 cells assessed as cell growth at 3X10'-9 M after 48 hrs by sulforhodamine B assay; conditions: OVCAR-4, 48 h, read-out: Activity
MOLT-4 = experiment: Growth inhibition of human MOLT4 cells assessed as cell growth at 3X10'-6 M after 48 hrs by sulforhodamine B assay; conditions: MOLT-4, 48 h, read-out: Activity
HOP-92 [11] = experiment: Growth inhibition of human HOP92 cells assessed as cell growth at 3X10'-7 M after 48 hrs by sulforhodamine B assay; conditions: HOP-92, 48 h, read-out: Activity
RPMI-8226 = experiment: Growth inhibition of human RPMI8226 cells assessed as cell growth at 3X10'-6 M after 48 hrs by sulforhodamine B assay; conditions: RPMI-8226, 48 h, read-out: Activity
NCI-H460 = experiment: Growth inhibition of human NCI-H460 cells assessed as cell growth at 5X10'-8 M after 48 hrs by sulforhodamine B assay; conditions: NCI-H460, 48 h, read-out: Activity
UO-31 = experiment: Growth inhibition of human UO31 cells assessed as cell growth at 5X10'-6 M after 48 hrs by sulforhodamine B assay; conditions: UO-31, 48 h, read-out: Activity

Structure (SMILES)	growth at 30 µM (RXF 393) [%]	growth at 0.03 µM (MDA-MB-231) [%]	growth at 30 µM (NCI-H226) [%]	growth at 0.03 µM (HT-29) [%]	growth at 0.3 µM (SR [1]) [%]	growth at 0.03 µM (786-0) [%]	growth at 0.3 µM (UACC-62) [%]	growth at 3 µM (K562 [2]) [%]	growth at 0.3 µM (PC-3) [%]	growth at 0.03 µM (BT-549) [%]	growth at 0.003 µM (SK-MEL-5 [3]) [%]	growth at 0.003 µM (UACC-257) [%]	growth at 3 µM (SK-MEL-5 [4]) [%]	growth at 3 µM (A549) [%]	growth at 0.003 µM (U-251) [%]	growth at 0.03 µM (SK-MEL-5 [5]) [%]	growth at 0.003 µM [6] [%]	growth at 3 µM (SR [8]) [%]	growth at 0.03 µM (MDA-MB-468) [%]	growth at 0.03 µM (MDA-MB-435) [%]	other results
COc1cc(-c2nn(-c3cccc(NC(=O)Nc4ccc(Cl)c(C(F)(F)F)c4)c3)cc2-c2ccncc2)ccc1Cl	-49	92	3	106	98	102	89	12	80	113	98	94	-5	11	97	91	90	-13	90	92	growth at 0.3 µM (HL-60(TB)): 110%; growth at 3 µM (HOP-92 [7]): -36%; growth at 0.003 µM (ACHN): 102%; growth at 0.3 µM (K562 [9]): 100%; growth at 0.3 µM (IGROV-1): 109%; growth at 3 µM (CCRF-CEM): 3%; growth at 0.3 µM (SK-MEL-28): 95%; growth at 0.03 µM (SK-OV-3): 104%; growth at 0.3 µM (SK-MEL-2): 111%; growth at 0.003 µM (K562 [10]): 110%; growth at 0.003 µM (OVCAR-4): 96%; growth at 3 µM (MOLT-4): 9%; growth at 0.3 µM (HOP-92 [11]): 70%
O=C(Nc1cccc(-n2cc(-c3ccncc3)c(-c3ccc(Cl)c(O)c3)n2)c1)Nc1cccc(C(F)(F)F)c1	-37	101	20	99	100	96	92	22	82	96	103	96	17	24	100	98	93	33	89	100	growth at 3 µM (HOP-92 [7]): -13%; growth at 0.003 µM (ACHN): 103%; growth at 0.3 µM (K562 [9]): 101%; growth at 0.3 µM (IGROV-1): 100%; growth at 3 µM (CCRF-CEM): 25%; growth at 0.3 µM (SK-MEL-28): 101%; growth at 0.03 µM (SK-OV-3): 96%; growth at 0.3 µM (SK-MEL-2): 107%; growth at 0.003 µM (K562 [10]): 94%; growth at 0.003 µM (OVCAR-4): 101%; growth at 3 µM (MOLT-4): 36%; growth at 0.3 µM (HOP-92 [11]): 65%; growth at 3 µM (RPMI-8226): 25%
COc1cc(-c2nn(-c3cccc(NC(=O)Nc4cccc(C(F)(F)F)c4)c3)cc2-c2ccncc2)ccc1Cl	–	–	–	–	–	–	–	–	–	–	–	–	–	–	–	–	–	–	–	–	growth at 0.05 µM (NCI-H460): 102%; growth at 5 µM (UO-31): -15%
O=C(Nc1cccc(-n2cc(-c3ccncc3)c(-c3ccc(Cl)c(O)c3)n2)c1)Nc1ccc(Cl)c(Cl)c1	-37	100	12	104	97	96	91	16	81	102	96	95	-73	14	98	96	89	11	90	96	growth at 3 µM (HOP-92 [7]): -26%; growth at 0.003 µM (ACHN): 103%; growth at 0.3 µM (K562 [9]): 110%; growth at 0.3 µM (IGROV-1): 107%; growth at 3 µM (CCRF-CEM): 10%; growth at 0.3 µM (SK-MEL-28): 97%; growth at 0.03 µM (SK-OV-3): 99%; growth at 0.3 µM (SK-MEL-2): 111%; growth at 0.003 µM (K562 [10]): 100%; growth at 0.003 µM (OVCAR-4): 103%; growth at 3 µM (MOLT-4): 19%; growth at 0.3 µM (HOP-92 [11]): 86%; growth at 3 µM (RPMI-8226): 10%
COc1cc(-c2nn(-c3cccc(NC(=O)c4ccc(Cl)c(C(F)(F)F)c4)c3)cc2-c2ccncc2)ccc1Cl	-11	97	23	99	82	96	92	22	78	96	99	93	24	44	96	97	93	5	91	97	growth at 0.3 µM (HL-60(TB)): 116%; growth at 0.003 µM (ACHN): 99%; growth at 0.3 µM (K562 [9]): 115%; growth at 0.3 µM (IGROV-1): 95%; growth at 3 µM (CCRF-CEM): 32%; growth at 0.3 µM (SK-MEL-28): 95%; growth at 0.03 µM (SK-OV-3): 100%; growth at 0.3 µM (SK-MEL-2): 96%; growth at 0.003 µM (K562 [10]): 99%; growth at 0.003 µM (OVCAR-4): 98%; growth at 3 µM (MOLT-4): 57%; growth at 0.3 µM (HOP-92 [11]): 73%; growth at 3 µM (RPMI-8226): 31%
